# Measured values published in patent publication US20070249545A1, “DIHYDROFOLATE REDUCTASE INHIBITION BY EPIGALLOCATECHIN GALLATE COMPOUNDS” (priority 2004, published 2007).
# pIC50, pKi: −log10 of the molar value.
# Key:
# urokinase = urokinase (Homo sapiens, UniProt P00749); conditions: in vitro; cited from earlier work
# Jurkat T = test: Growth of Jurkat T lymphoma cells; type: cell-based, human
# Method: (§1) To determine whether EGCG inhibits DHFR activity in vivo, two human cancer cell, (Caco-2 from colon cancer and Jurkat T a lymphoma cell line) were incubated with various concentrations of EGCG in a standard medium.
# chicken liver DHFR = target: T1, chicken liver DHFR (Gallus gallus, UniProt P00378); test: Kinetic analysis of inhibition of chicken liver DHFR; type: biochemical
# T1 construct: from tissue; host or cells: chicken liver
# T1 sequence (P00378 whole entry): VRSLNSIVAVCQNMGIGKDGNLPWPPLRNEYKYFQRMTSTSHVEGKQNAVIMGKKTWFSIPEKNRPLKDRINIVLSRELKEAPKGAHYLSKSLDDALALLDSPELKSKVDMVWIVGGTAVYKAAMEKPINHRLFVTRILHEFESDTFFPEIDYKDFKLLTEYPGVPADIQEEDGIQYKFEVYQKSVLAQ
# Method: The activity of DHFR was determined at 25° C. by following the decrease of NADPH and DHF by absorbance measurements at 340 nm (ε=11,800 M^−1 cm^−1) by using a Perkin-Elmer Lambda-2 spectrophotometer with cuvettes of 1.0 cm light-path.
# Experiments were performed at pH 7.58 and 25° C. in a buffer containing 2-(N-morpholino)ethanesulfonic acid (MES, 25 mM), sodium acetate (25 mM), tris(hydroxymethyl)aminomethane (Tris 50 mM), and NaCl (100 mM). To prevent the oxidation of catechins, the reaction mixture contained 1 mM ascorbic acid. The pH of the reaction was measured before and after of the experiment. The assays were started by the addition of enzyme. In the absence of the enzyme, the rate of change of absorbance was negligible.
# Lineweaver-Burk plots were made of the reaction of chicken liver DHFR (3.3 nM) with DHF and NADPH. For initial velocity inhibition experiments one substrate (NADPH) was held constant at saturating concentration (100 μM) while the concentration of the other substrate (DHF) and the inhibitor (EGCG) were varied (FIG. 3). […] This initial concentration of saturating NADPH was considered as constant after the consumption of 10 μM DHF by the addition of enzyme. Data were fitted by nonlinear regression to the integrated form (31) of the Michaelis equation. The fitting was performed by using Marquart's algorithm (32) implemented in the Sigma Plot 2.01 for Windows (33). […]
# [1] = target: T2, recombinant human DHFR (rHDHFR) (Homo sapiens, UniProt P00374); test: Inhibition of human DHFR by tea catechins; type: biochemical
# T2 sequence (P00374 1-187): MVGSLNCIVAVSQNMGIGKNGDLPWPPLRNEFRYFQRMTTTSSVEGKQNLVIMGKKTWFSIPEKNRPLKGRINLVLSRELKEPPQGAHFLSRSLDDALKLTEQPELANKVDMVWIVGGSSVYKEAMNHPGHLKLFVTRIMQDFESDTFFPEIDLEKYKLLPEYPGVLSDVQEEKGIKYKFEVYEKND
# Caco-2 = test: Growth of Caco-2 colon cancer cells; type: cell-based, human
# Method: as §1
# NF-κB = test: TNF-α-mediated activation of NF-κB (Western blot); type: cell-based; conditions: 24 hours, then TNF-α, IκBα, phospho-IκBα, Akt
# Method: To check if the antifolate activity of EGCG is related to the suppression of activation of NF-κB, cells were grown in the presence of EGCG or MTX. After 24 hours, the cells were induced with TNF-α and the content of proteins related to NF-κB activation (IκBα, phospho-IκBα, Akt and phosphor-Akt) was checked by Western blot (FIG. 16A).
# S. maltophilia strain 1 = test: Time kill assay for bactericidal and bacteriostatic effects; type: cell-based, Stenotrophomonas maltophilia
# Method: A time kill assay was performed for strain 1. Glass tubes containing cation-adjusted Mueller-Hinton broth, with doubling antibiotic concentration were inoculated with 5×10^5 CFU/ml and were incubated at 37° C. for 24 h. Antibiotic concentrations were chosen to comprise three doubling dilutions above and two doubling dilutions below the broth dilution MIC. Inoculation of each serially diluted antibiotic tube was performed following NCCLS guidelines for broth dilution method. Viability counts of antibiotic-containing suspensions were carried out at 0, 3, 6, 12 and 24 h, by plating 10 μl aliquots of 10-fold dilutions from each tube in sterile saline onto Columbia agar supplemented with 5% of defibrinated sheep blood. The plates used to recover organisms were incubated for up to 24 h. The lower limit of sensibility of colony counts was 100 CFU/ml. Time kill assay results were analyzed by determining changes in the log10 CFU/ml compared to the counts at zero-time for the six different concentrations of EGCG. Bactericidal effect was defined at the lowest concentration that reduced the original inoculums by ≧3 log10 CFU/ml after a period of time and bacteriostatic if the inoculums was reduced by 0 to 3 log10 CFU/ml.
# p16 = p16 methylation status in Caco-2 cells; conditions: EGCG 20 μM, 7-days treatment
# [2] = standard medium, read-out: IC50 of cell growth
substance,measurement,setting,value
(−)-epigallocatechin gallate [EGCG],concentration needed to inhibit urokinase activity,urokinase,2 to 10 mM
same,apoptosis,Jurkat T,induction of apoptosis
same,cell cycle effect,Jurkat T,G0/G1 phase arrest
same,effects in HT medium and in the presence of folinic acid or thymine,Jurkat T,highly attenuated
same,pIC50,Jurkat T; [2],5.00
same,pKi,"chicken liver DHFR; chicken liver DHFR, from secondary plot, read-out: KI as a competitive inhibitor of DHF",4.99
same,inhibition after preincubation and 500-fold dilution,"chicken liver DHFR; enzyme 1.65 μM preincubated with 20 to 50 μM inhibitor for 30 min, 500-fold dilution into DHF/NADPH assay",did not produce any measurable inhibition
same,pKi,[1],5.70
same,inhibition of rHDHFR activity,[1],potent inhibitors
same,apoptosis,Caco-2,induction of apoptosis
same,cell cycle effect,Caco-2,G0/G1 phase arrest
same,effects in HT medium and in the presence of folinic acid or thymine,Caco-2,highly attenuated
same,pIC50,Caco-2; [2],4.52
same,"effects on proteins related to NF-κB activation, with folinic acid",NF-κB,highly reversed by folinic acid
same,regrowth,"S. maltophilia strain 1; 64 μg/ml, after 12 h incubation",Regrowth was observed
same,concentration with bactericidal effect,S. maltophilia strain 1; at 12 h,4 times the MIC
same,concentration with bacteriostatic effect,S. maltophilia strain 1; at 12 h,2 times the MIC
same,p16 methylation pattern,p16,changed from methylated to unmethylated
